In patent publication US5262520A, “Peptides and antibodies that inhibit integrin-ligand binding” (The Scripps Research Institute, priority 1990, dated 1993):
Where no end group is shown, it is not given here.

What was measured:
[1] = target: T1, ^125 I-fibrinogen with immobilized p1 peptide (Homo sapiens, UniProt P08514); experiment: Inhibition of 125I-fibrinogen binding to immobilized p1 peptide; settings: for inhibition of fibrinogen binding to immobilized p1 (in words): text summary of Table 7
T1 construct: for GPIIb from residue 296; made in house; no expression host
Method: Polypeptides p1, p1', and controls were immobilized on 96-well Immulon-2 microtiter plates (Dynatech Laboratories, VA). The peptides were added to the plates and maintained at 4 C for 24 hours after which the plates were washed with Hepes-Tyrode's buffer (pH 7.4) containing Tween-20. The plates were post-coated with 3% BSA for 1 hr. at 37° C. and then washed again. ^125 I-fibrinogen (50 μL at 50 nM) was allowed to bind to the peptide-coated wells for 24 hours at 22° C. which were then extensively washed and counted for bound radioactivity.
Cation dependence of binding was established in the presence of EDTA (5 mM). Two gamma-chain peptides of fibrinogen (HHLGGAKQAGDV and KYGGHHLGGAHQAGDV) inhibited the interaction of fibrinogen with immobilized pl. […] These observations are consistent with the hypothesis that RGD gamma-chain peptides interact with the same sites in GPIIb-IIIa.

GPIIb = target: T2, GPIIb (Homo sapiens, UniProt P08514); experiment: Chemical crosslinking of 125I-K16 to GPIIb on platelets; assay type: binding
T2 construct: endogenous in cells; host or cells: washed human platelets from fresh blood
From the text: Platelets were isolated from fresh human blood collected into acid/citrate/dextrose by differential centrifugation followed by gel filtration on Sepharose 2B in divalent ion-free Tyrode's buffer, pH 7.3, containing 0.1% bovine serum albumin. See, Marguerie et al., J. Biol. Chem., 225:154-161 (1980).
Platelet binding of K16 followed the protocols previously described for measuring platelet interactions with adhesive proteins and with this and other peptides. See, Ginsberg et al., J. Biol. Chem., 260:3931-3936 (1985); Lam et al., Fed. Proc. Fed. Am. Soc. Exp. Biol., 44:1126 (1985); and Marguerie et al., supra. Briefly, platelets were suspended at 4×10^8 /ml in divalent ion-free Tyrode's albumin buffer. Unless otherwise specified, Ca^2+ was added to a final concentration of 1 mM. The platelet stimulus used was 0.5 unit/ml alpha-thrombin. In assays in which fibrinogen and thrombin were present, 30 nM D-phenylalanyl-L-prolyl-arginine ketone (Calbiochem, La Jolla, Ca.) was added to the platelet suspension 5 minutes after addition of thrombin and 5 minutes before addition of fibrinogen. The radiolabeled peptide was then added to […] stimulated or nonstimulated platelets at a concentration of 30 μM, and binding proceeded for 45 min at 22° C. The selected cross-linking agent was then added. The cross-linking agent used in this study, bis(sulfosuccinimidyl) suberate (BS^3), purchased from Pierce Chemical Co. was dissolved in PBS immediately prior to use and admixed with the platelets to a final concentration of 0.2 mM. The cross-linking reactions were terminated after 10 min at 22° C. by addition of 10 mM Tris, pH 7.0.
The cell-bound ligand was recovered by centrifugation through 20% sucrose, and the cells were extracted in PBS containing 1% Nonidet P40 and 10 mM N-ethylmaleimide (Sigma). Extrated proteins were precipitated with 10% trichloroacetic acid, and the pellet obtained after centriguation was washed three times with cold 85% ethanol. The cross-linked samples were analyzed by electrophoresis (SDS-PAGE) on polyacrylamide vertical slab gels in the buffer system of Laemmli, Nature, 227 […] (1970). For disulfide bond reduction, the samples were treated with 5% 2-mercaptoethanol. Gels were dried and autoradiograms were developed with Kodak X-Omat AR films. Molecular weights were estimated on the basis of electrophoretic mobility relative to standards obtained from Diversified Biotech (MA).
Cross-linked samples were immunoprecipitated using a monoclonal antibody designated PMI-1, which recognizes the heavy chain of GPIIb. Loftus et al., Proc. Natl. Acad. Sci. USA. 84:7114 (1987). […]

[2] = GPIIb:K16 complex, gel under reducing conditions, excised and counted

HHLGGAKQAGDV [HHLGGAKQAGDV]
inhibition at 200 µM ([1]; inhibitor 200 μM): 57 ± 11%

N=C(N)NCCC[C@H](N)C(=O)NCC(=O)N[C@@H](CC(=O)O)C(=O)N[C@@H](CO)C(=O)O [RGDS]
inhibition at 200 µM ([1]; inhibitor 200 μM): 52 ± 15%

Fibrinogen
% Inhibition of ^125 I-fibrinogen binding to p1 ([1]; inhibitor 2 μM): 82 ± 1.2%

YVTAGRGDSPASSK [YVTAGRGDSPASSK]
inhibition at 200 µM ([1]; inhibitor 200 μM): 61 ± 16%

Albumin
% Inhibition of ^125 I-fibrinogen binding to p1 ([1]; inhibitor 2 μM): 12 ± 4% | inhibition of fibrinogen binding to immobilized p1 (in words) [1]: minimal inhibition

KYGGHHLGGAKQAGDV [K16, peptide derived from fibrinogen gamma chain]
crosslinking of the radiolabeled peptide to the cells (GPIIb; 50-fold excess of nonlabeled K16, thrombin-stimulated platelets, FIG. 2A): abolished the crosslinking | radioactivity in the position of light chain of GPIIb (GPIIb; [2]): < 2% | radioactivity in the position of the heavy chain of GPIIb (GPIIb; [2]): 98% | increase of K16 crosslinking to GPIIb (GPIIb; thrombin stimulation relative to nonactivated platelets, 4 experiments): 12 fold | % Inhibition of ^125 I-fibrinogen binding to p1 ([1]; inhibitor 200 μM): 54 ± 12% | inhibition of fibrinogen binding to immobilized p1 (in words) [1]: inhibited

O=C(O)CN(CCN(CC(=O)O)CC(=O)O)CC(=O)O [EDTA]
% Inhibition of ^125 I-fibrinogen binding to p1 ([1]; inhibitor 5000 μM): 90 ± 8%

GRGESP [GRGESP]
inhibition at 200 µM ([1]; inhibitor 200 μM): 16 ± 7%
